The source of these data is patent US10722480B2, “Agent for controlling cells constituting cancer microenvironment or inflammatory microenvironment” (The University of Tokyo, priority 2015, dated 2020).

Experiment [1] has as its system infiltrating cells in the peritoneum (macrophages, neutrophils). Put plainly: In vivo chemotaxis assay (thioglycolate peritonitis). Further details: species or system mouse. The conditions noted are these: wild-type mice. The protocol: Peritonitis was induced by intraperitoneal administration of 2 mL of 4% thioglycolate medium (Difco) to each of FNT^flox/flox mice and FNT-cKO mice. Infiltrating cells in the peritoneum were collected by injecting 5 mL of ice-cold PBS into the abdominal cavity and giving a gentle massage. The collected cells was washed with PBS containing 0.1% FBS, and then subjected to flow cytometry analysis to investigate the cell number and the cell populations. The same treatment as in the above-described section 8 was carried out on wild-type mice to induce peritonitis, and infiltrating cells in the peritoneum were collected. After washing the collected cells, flow cytometry analysis was carried out to investigate the cell number and the cell populations. For evaluation of disulfiram, disulfiram was dissolved in DMSO, and then diluted in 2% Tween 80-containing physiological saline to each concentration shown in the figure. Each resulting disulfiram solution was administered to mice 1 day before and 30 minutes before the administration of thioglycolate.

The next experiment has as its target T1, CCR2 (Homo sapiens, UniProt P41597).
T1 sequence (P41597 1-360 isoform P41597-2): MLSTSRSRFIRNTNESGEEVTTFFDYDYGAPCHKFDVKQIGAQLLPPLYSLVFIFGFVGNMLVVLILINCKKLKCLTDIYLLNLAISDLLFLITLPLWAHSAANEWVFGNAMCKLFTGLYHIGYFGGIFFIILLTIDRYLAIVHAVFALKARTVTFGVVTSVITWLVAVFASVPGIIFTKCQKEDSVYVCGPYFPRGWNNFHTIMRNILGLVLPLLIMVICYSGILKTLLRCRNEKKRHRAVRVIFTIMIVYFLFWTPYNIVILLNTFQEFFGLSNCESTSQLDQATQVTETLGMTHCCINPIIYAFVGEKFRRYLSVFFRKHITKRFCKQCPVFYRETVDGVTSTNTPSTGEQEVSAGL
Description: Surface plasmon resonance binding to CCR2. The conditions noted are these: SPR. In general terms: SPR reads the build-up and loss of mass on a sensor chip optically.

Another experiment relates to B16F10 melanoma cells. Description: Lung metastasis model (B16F10). The class given is in vivo, mouse. The following applies: B16F10 via tail vein, Day 9 post tumor administration. The procedure:
To provide a lung metastasis model, 1×10^6 B16F10 melanoma cells were suspended in 200 μL of PBS, and administered from the tail vein of each of wild-type C57BL/6 mice. Administration of the inhibitor was carried out one day before, 30 minutes before, and one day after the tumor administration. To provide a control, DMSO and a pyrimidine fluoride anticancer drug 5-FU were administered. The mice were euthanized on Day 9 post tumor administration, and PBS was perfused from the left ventricle, followed by isolation of lungs. Visible lung metastatic lesions in the left lobe were counted.

In the case of `CCN(CC)C(=S)SSC(=S)N(CC)CC` [DSF, disulfiram], in experiment [1], the “infiltration of macrophages into peritoneal inflammatory sites” value was “reduced” and the “infiltration of neutrophils into peritoneal inflammatory sites” value is “not influenced”. Further, the “binding to CCR2” value on CCR2 was “did not bind”. In addition, in the experiment with B16F10 melanoma cells (listed as Disulfiram), the “formation of lung metastatic lesions” value is given as “significantly reduced”. For the same compound, the “formation of lung metastatic lesions” value in the experiment with B16F10 melanoma cells (listed as disulfiram) is reported as “effectively reduced”.
